Type in all cases: cell-based
One experiment concerns Bacterial Spores. Kind of experiment: Sporicidal test against conventional compositions (Table 22). The note with it: H2O2 35% pH 3.32, KK 2.0 wt-% (250 ppm POOA) pH 1.85, mixed peracid 1.5 wt-% (750 ppm peracid) pH 3.06, peroxyacetic 4.5 wt-% (2610 ppm POAA) pH 2.61. How it is done: (§1) Antimicrobial activity was determined according to two well established methods. The first method was the procedure set out in Germicidal and Detergent Sanitizing Action of Disinfectants, Official Methods of Analysis of the Association of Official Analytical Chemists, paragraph 960.09 and applicable sections, 15th Edition, 1990 (EPA Guideline 91-2). The second method was the procedure described in A.O.A.C. Use Dilution Methods, Official Methods of Analysis of the Association of Official Analytical Chemists, paragraph 955.14 and applicable sections, 15th Edition, 1990 (EPA Guideline 91-2). Briefly, antimicrobial activity of the present compositions was determined by exposing a one mL aliquot containing the target microorganism to 99 mL of the desired concentration of the test substance at the desired temperature. After the specified contact time, one mL of the test solution containing the microorganism was neutralized and enumerated for survivors.

Another experiment relates to S. aureus. The experiment in a line: Germicidal and detergent sanitizing action suspension test (AOAC 960.09). The note with it: Staphylococcus aureus, 0.5 min. How it is done:
as §1
(§2) Antimicrobial activity was determined as described above in Example 4.
(§3) Test 1 included 5 min exposure of the microbe to composition AB at room temperature. The microbes in test 1 included E. aerogenes ATCC 13048 and S. aureus ATCC 6538. Test 2 included 30 sec exposure of the microbe to composition AB at room temperature. The microbes in test 2 included S. aureus ATCC 6538, E. coli ATCC 11229, and P. aeruginosa ATCC 13442.

The test system of a further experiment is E. coli. The experiment is described as above. The note with it: Escherichia coli, 0.5 min; for log reduction at 5 ppm / log reduction at 10 ppm: 30 Second Exposure at Room Temperature; for log reduction at 20 ppm / log reduction at 40 ppm / log reduction at 60 ppm: 30 seconds. As for the experimental part: as §1, §2, §3
The mark [1] stands for this setting: Soft water pH 3.91, Post Test pH 4.01.

The record followed here is patent EP1701622B1, “METHOD FOR WASHING CARCASS, MEAT, OR MEAT PRODUCTS WITH MEDIUM CHAIN PEROXYCARBOXYLIC ACID COMPOSITIONS” (ECOLAB INC., priority 2004, dated 2005).

Like-named read-outs stand apart in the source and are kept apart here.

Take `OO` [Composition H2O2, hydrogen peroxide]: the “Log Reduction” value is 1.19 log in the experiment on Bacterial Spores (40 °C, 30 sec); 2.94 log with Bacterial Spores (40 °C, 60 sec); over 6.30 log in the experiment on Bacterial Spores (40 °C, 120 sec); 1.59 log in the experiment on Bacterial Spores (60 °C, 10 sec); 4.85 log in the experiment with Bacterial Spores (60 °C, 20 sec); 4.89 log with Bacterial Spores (60 °C, 30 sec). In addition, the “Log Reduction” value in the experiment with Bacterial Spores (80 °C, 10 sec) is recorded as over 6.30 log; in the experiment on Bacterial Spores (80 °C, 20 sec) it was over 6.30 log; in the experiment on Bacterial Spores (80 °C, 30 sec), over 6.30 log.
On to `CCCCCCCC(=O)OO` [Pure POOA Crystals, peroxyoctanoic acid], for which the log reduction at 5 ppm with S. aureus (5 ppm, Milli-Q water pH 4.04, Post Test pH 4.09, 30 Second Exposure at Room Temperature, read-out: Log Reduction of S. aureus) is 6.28; in the experiment with S. aureus (5 ppm, Milli-Q water pH 5.00, Post Test pH 5.03, 30 Second Exposure at Room Temperature, read-out: Log Reduction of S. aureus), 5.01; in the experiment with S. aureus (5 ppm, Milli-Q water pH 5.98, Post Test pH 5.89, 30 Second Exposure at Room Temperature, read-out: Log Reduction of S. aureus) it was 4.44; in the experiment on S. aureus (5 ppm, Milli-Q water pH 6.60, Post Test pH 6.24, 30 Second Exposure at Room Temperature, read-out: Log Reduction of S. aureus) it was 6.04; in the experiment on S. aureus (5 ppm, Soft water pH 3.91, Post Test pH 4.01, 30 Second Exposure at Room Temperature, read-out: Log Reduction of S. aureus), 5.82; in the experiment with S. aureus (5 ppm, Soft water pH 5.08* (pH drift of ~0.7 pH units), Post Test pH 5.79, 30 Second Exposure at Room Temperature, read-out: Log Reduction of S. aureus), 5.16. For the same molecule, the log reduction at 5 ppm amounted to 4.19 in the experiment with S. aureus (5 ppm, Soft water pH 5.91* (pH drift of ~0.7 pH units), Post Test pH 6.68, 30 Second Exposure at Room Temperature, read-out: Log Reduction of S. aureus); 0.1 in the experiment with S. aureus (5 ppm, Soft water pH 9.29, Post Test pH 9.12, 30 Second Exposure at Room Temperature, read-out: Log Reduction of S. aureus); 5 in the experiment on S. aureus (concentration of 5 ppm, pH of ~5, 30 sec, RT, read-out: log reductions of Staphylococcus aureus); 1.34 in the experiment on E. coli (Milli-Q water pH 4.04, Post Test pH 4.09); 0.07 in the experiment with E. coli (Milli-Q water pH 5.00, Post Test pH 5.03); 0.11 in the experiment on E. coli (Milli-Q water pH 5.98, Post Test pH 5.89). Further, the log reduction at 5 ppm was 0.09 with E. coli (Milli-Q water pH 6.60, Post Test pH 6.24); 1.26 in the experiment on E. coli (setting [1]); 0.09 in the experiment on E. coli (Soft water pH 5.08* (pH drift of ~0.7 pH units), Post Test pH 5.79); 0.08 in the experiment on E. coli (Soft water pH 5.91* (pH drift of ~0.7 pH units), Post Test pH 6.68); 0.07 in the experiment on E. coli (Soft water pH 9.29, Post Test pH 9.12). The log reduction at 10 ppm with S. aureus (Milli-Q water pH 4.04, Post Test pH 4.08, 30 Second Exposure at Room Temperature) was over 6.82; with S. aureus (Milli-Q water pH 5.00, Post Test pH 4.98, 30 Second Exposure at Room Temperature), over 6.82; with S. aureus (Milli-Q water pH 5.98, Post Test pH 5.90, 30 Second Exposure at Room Temperature) it was 6.52; in the experiment on S. aureus (Milli-Q water pH 6.60, Post Test pH 5.80, 30 Second Exposure at Room Temperature), over 6.82; in the experiment with S. aureus (Soft water pH 3.91, Post Test pH 4.01, 30 Second Exposure at Room Temperature), 6.28; in the experiment with S. aureus (Soft water pH 5.08, Post Test pH 5.67, 30 Second Exposure at Room Temperature), 6.12. The log reduction at 10 ppm with S. aureus (Soft water pH 5.91, Post Test pH 6.68, 30 Second Exposure at Room Temperature) is over 6.82; with S. aureus (Soft water pH 9.29, Post Test pH 9.09, 30 Second Exposure at Room Temperature) it was 0.26; with E. coli (Milli-Q water pH 4.04, Post Test pH 4.08), 6.04; with E. coli (Milli-Q water pH 5.00, Post Test pH 4.98), 0.07; with E. coli (Milli-Q water pH 5.98, Post Test pH 5.90), 0.1; with E. coli (Milli-Q water pH 6.60, Post Test pH 5.80), 0.06. Besides, the log reduction at 10 ppm in the experiment with E. coli (setting [1]) was 6.34; with E. coli (Soft water pH 5.08, Post Test pH 5.67), 0.55; in the experiment on E. coli (Soft water pH 5.91, Post Test pH 6.68), 0.24; with E. coli (Soft water pH 9.29, Post Test pH 9.09), 0.07. Further, the log reduction at 20 ppm in the experiment with E. coli (20 ppm, 500 ppm Synthetic Hard Water, pH 7.77, pH 7.68) came out at 0.62; in the experiment on E. coli (pH 5.58, 20 ppm, Milli-Q water, pH 5.58) it was 0.55. Further, the log reduction at 40 ppm in the experiment on E. coli (40 ppm, 500 ppm Synthetic Hard Water, pH 7.77, pH 7.61) worked out at 0.93; in the experiment with E. coli (pH 5.28, 40 ppm, Milli-Q water, pH 5.28), 2.61. The log reduction at 60 ppm in the experiment on E. coli (60 ppm, 500 ppm Synthetic Hard Water, pH 7.77, pH 7.54) amounted to 1.12; with E. coli (pH 5.08, 60 ppm, Milli-Q water, pH 5.08), 4.68.
